Experimental data reported in article PMC10433800, “Dissecting the Arginine and Lysine Biosynthetic Pathways and Their Relationship in Haloarchaeon Natrinema gari J7-2 via Endogenous CRISPR-Cas System-Based Genome Editing” (Microbiology Spectrum, 2023).

Molecular target: T1, NgArgX (Natrinema gari, UniProt L9YZH8)
T1 construct: gene C486_12678; ArgX with His tag (C-terminal in complementation plasmids), expressed in and partially purified from the J7-2 delta-argWX strain; carrier ArgW with N-terminal His tag purified from E. coli BL21(DE3); with Alpha-aminoadipate/glutamate carrier protein LysW/ArgW
T1 sequence (L9YZH8 1-291): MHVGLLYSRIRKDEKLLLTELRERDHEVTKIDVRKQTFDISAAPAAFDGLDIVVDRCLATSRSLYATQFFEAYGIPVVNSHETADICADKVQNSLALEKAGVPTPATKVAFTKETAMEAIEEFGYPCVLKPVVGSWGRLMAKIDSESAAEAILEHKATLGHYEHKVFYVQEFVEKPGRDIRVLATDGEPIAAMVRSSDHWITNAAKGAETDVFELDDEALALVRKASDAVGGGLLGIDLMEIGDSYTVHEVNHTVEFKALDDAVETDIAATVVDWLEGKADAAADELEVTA
Assay: LC-MS/MS of trypsin-digested NgArgW-glutamate product
Format: biochemical
Details: 10 mM glutamate, 20 mM ATP, 1 mM MgCl2, 0.1 mM ZnSO4, 3 M KCl, 100 mM HEPES pH 7.5, 45 °C, 12 h; glutamate ligated to Glu54 of NgArgW; enzyme partially purified

Compound: N[C@@H](CCC(=O)O)C(=O)O [glutamate]
- LC-MS/MS of trypsin-digested NgArgW-glutamate product: both NgArgX and NgArgXa specifically act on glutamate rather than AAA
